From ChEMBL document CHEMBL1153802, “Human plasma-mediated hypoxic activation of indolequinone-based naloxone pro-drugs” (Bioorg Med Chem Lett, 2009)

Tested on: Plasma
Assay: Prodrug stability in human plasma assessed as […] release under normoxic condition after 24 hrs by HPLC analysis
Format: ADME, cell-free

C=CCN1CC[C@]23c4c5ccc(OC(=O)N(C)CCN(C)C(=O)OCc6c7c(n(C(=O)NCCOCCOCCNC(=O)OC(C)(C)C)c6C)C(=O)C=C(OC)C7=O)c4O[C@H]2C(=O)CC[C@@]3(O)[C@H]1C5
Stability: Unstable
